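96-well plates; 48 h exposure; 5 concentrations. Endpoints by linear interpolation between flanking doses. Not reached: highest tested concentration assigned. Here, GI50 denotes the concentration required for 50% inhibition of growth. TGI denotes the concentration required for complete inhibition of growth.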

From PubChem BioAssay (NCI) come the findings set out here.

Among the test systems are SF-295 CNS; SF-268 CNS; UACC-257 melanoma; OVCAR-8 ovarian; SW-620 colon; A549 NSCLC; UO-31 renal; MDA-MB-435; HS 578T breast.
What all share (assay): growth of human tumour cells (NCI), 48 h

With `O=C(c1ccccc1)C1N=NN(Cc2ccccc2[N+](=O)[O-])C1C(=O)c1ccccc1` (centres undefined), the TGI in the assay with SF-295 CNS, with SF-268 CNS, with UACC-257 melanoma, in the assay with OVCAR-8 ovarian, in the assay with SW-620 colon and in the assay with A549 NSCLC was over 100 µM each time. Also, the TGI in the assay on UO-31 renal was over 100 µM.
Consider `Cc1ccccc1NC(=O)CSc1nnc(-c2ccc(N=Cc3ccc(Cl)cc3)cc2)o1`, for which the TGI in the assay on SF-295 CNS, in the assay with SF-268 CNS, with UACC-257 melanoma, in the assay on OVCAR-8 ovarian, in the assay on SW-620 colon and in the assay with A549 NSCLC was over 100 µM each time. In the assay on UO-31 renal, this compound registered a TGI of over 100 µM.
Take `Cc1nnc2n1N=C(c1ccccc1)C(c1ccccc1)S2` (centres undefined): the TGI is over 100 µM in the assay on SF-295 CNS; over 100 µM in the assay on SF-268 CNS; over 100 µM in the assay on UACC-257 melanoma; over 100 µM in the assay with OVCAR-8 ovarian; 26.8 µM in the assay on SW-620 colon; over 100 µM in the assay on A549 NSCLC. Moreover, the TGI with UO-31 renal was over 100 µM.
In the case of `O=C1CC23CCCCCCCCCCC2(C1)CC(=O)C3` (centres undefined), the TGI in the assay with SF-295 CNS, in the assay with SF-268 CNS, with UACC-257 melanoma, with OVCAR-8 ovarian, with SW-620 colon and in the assay with A549 NSCLC was over 100 µM each time. The same compound showed a TGI in the assay on UO-31 renal of 61.2 µM.
`Cc1cc2c(c(C(=O)O)c1C)-c1cccc(Cl)c1C2=O`: the TGI with SF-295 CNS, with SF-268 CNS, in the assay on UACC-257 melanoma, in the assay on OVCAR-8 ovarian, with SW-620 colon and in the assay with A549 NSCLC was over 100 µM in each case. This compound gave a TGI in the assay on UO-31 renal of over 100 µM.
For `CN(C)C(=S)/N=c1\ss/c(=N\C(=S)N(C)C)n1-c1cccc(Cl)c1`, the TGI in the assay with SF-295 CNS, with SF-268 CNS, with UACC-257 melanoma, in the assay with OVCAR-8 ovarian, in the assay on SW-620 colon and in the assay with A549 NSCLC was over 100 µM each time. In the assay with UO-31 renal, this compound registered a TGI of over 100 µM.
On to `O=C(CC1=Nc2nnc(CCCCCCCc3nnc4n3C(=O)C(CC(=O)c3ccc5ccccc5c3)=N4)n2C1=O)c1ccc2ccccc2c1`, for which the TGI in the assay on SF-295 CNS, in the assay on SF-268 CNS, in the assay on UACC-257 melanoma, in the assay on OVCAR-8 ovarian, with SW-620 colon and with A549 NSCLC was over 100 µM throughout. In addition, the TGI in the assay on UO-31 renal was over 100 µM.
As for `COC(=O)C1CC(c2ccc(OC)c(OC)c2)OC1=O` (mixture of isomers), the TGI in the assay on SF-295 CNS, in the assay with SF-268 CNS, in the assay on UACC-257 melanoma, in the assay with OVCAR-8 ovarian, in the assay on SW-620 colon and in the assay on A549 NSCLC was over 100 µM in each case. In the assay with UO-31 renal, the TGI is over 100 µM.
Take `CCOc1ccc(NC(=O)/C(CC(=O)c2c[n+](=O)c3ccccc3n2[O-])=N\OCCCc2ccccc2)cc1`: the TGI with SF-295 CNS, in the assay on SF-268 CNS, with UACC-257 melanoma, in the assay with OVCAR-8 ovarian, in the assay on SW-620 colon and in the assay with A549 NSCLC was over 100 µM in each case. Moreover, in the assay on UO-31 renal, the TGI is over 100 µM.
Regarding `CC(C)(C)C#COC(=O)c1ccccc1`, the TGI with SF-295 CNS, with SF-268 CNS, in the assay with UACC-257 melanoma, in the assay with OVCAR-8 ovarian, with SW-620 colon and in the assay with A549 NSCLC was over 100 µM throughout. In the assay on UO-31 renal, the TGI was over 100 µM.
Regarding `O=C(Nc1ccc(Cl)cc1C(F)(F)F)C(=O)Nn1c(=S)[nH]c2ccccc2c1=O`, the TGI in the assay on SF-295 CNS, in the assay on SF-268 CNS, in the assay with MDA-MB-435, with UACC-257 melanoma, in the assay with OVCAR-8 ovarian and in the assay with HS 578T breast was over 100 µM throughout. Besides, the TGI in the assay with SW-620 colon, in the assay on A549 NSCLC and with UO-31 renal was over 100 µM throughout.
Consider `CC(=O)Nc1ccc(C2CC(c3ccc([N+](=O)[O-])cc3)=Nc3ccccc3S2)cc1` (centres undefined), for which the TGI with SF-295 CNS turned out to be 35 µM; with SF-268 CNS it was 77.9 µM; in the assay on UACC-257 melanoma, 29.2 µM; in the assay on OVCAR-8 ovarian, 35.4 µM; in the assay with SW-620 colon it was 32.3 µM; in the assay on A549 NSCLC, 56 µM. The same compound came in with a TGI in the assay on UO-31 renal of 27.8 µM.
Take `O=c1c(Cc2ccc3c(c2)OCO3)nnc2sc(-c3cc(F)c(Cl)cc3Cl)nn12`: the GI50 is 72.5 µM in the assay on SF-295 CNS; 41.7 µM with SF-268 CNS; 52.9 µM with MDA-MB-435; 62.5 µM with UACC-257 melanoma; 36.9 µM in the assay on OVCAR-8 ovarian; 19.4 µM with SW-620 colon. For the same compound, the results for the GI50 with A549 NSCLC and with UO-31 renal were 41.8 µM and 50.2 µM, respectively. The TGI was over 100 µM in the assay with SF-295 CNS; over 100 µM with SF-268 CNS; over 100 µM in the assay with MDA-MB-435; over 100 µM with UACC-257 melanoma; over 100 µM in the assay with OVCAR-8 ovarian; 49.1 µM in the assay on SW-620 colon. Further, the TGI with A549 NSCLC and in the assay with UO-31 renal was over 100 µM each time.
As for `c1cnc2c(c1)-n1cccc1C1(CCCCC1)NN2`, the TGI in the assay on SF-295 CNS, in the assay with SF-268 CNS, with UACC-257 melanoma, in the assay with OVCAR-8 ovarian, in the assay with SW-620 colon and with A549 NSCLC was over 100 µM throughout. In the assay on UO-31 renal, the TGI was determined as 79.9 µM.
For `CN1CCCC2[C@@H]3CCC4c5nonc5CC[C@]4(C)C3CC[C@@]21C` (some centres undefined), the TGI in the assay with SF-295 CNS, with UACC-257 melanoma, in the assay with OVCAR-8 ovarian, in the assay with SW-620 colon, in the assay with A549 NSCLC and with UO-31 renal was over 100 µM in each case.
For the compound `CC(=O)[CH-]C(C)=O.CC(=O)[CH-]C(C)=O.[O-]c1ccccc1.[O-]c1ccccc1.[Ti+4]`, the GI50 with SF-295 CNS, in the assay with SF-268 CNS, in the assay with UACC-257 melanoma, in the assay on OVCAR-8 ovarian, in the assay with SW-620 colon and with A549 NSCLC was over 100 µM in each case. The GI50 with UO-31 renal was over 100 µM. Moreover, the TGI in the assay on SF-295 CNS, in the assay with SF-268 CNS, in the assay on UACC-257 melanoma, with OVCAR-8 ovarian, in the assay on SW-620 colon and with A549 NSCLC was over 100 µM throughout. The TGI with UO-31 renal is over 100 µM.
